Source: patent US20260053767A1, “Hepatoprotective Compositions And Methods” (Jemyll, Ltd., priority 2022, published 2026)
“Also recorded” adds a separate entry of the source.

What was measured:
Wistar rats [1] = assay: Study 1 (prevention): oral glucose tolerance test and HOMA-IR; format: in vivo; conditions: Study 1: 1% (w/vol) in drinking water with high fat-high cholesterol diet for 4 weeks
Method: (§1) Study design: All animal procedures were approved by the Catholic University of Rome Institutional Animal Care Committee. The design of the studies is summarized in FIG. 18, Panels A and B. • Study 1: Twenty adult Wistar rats, aged 8-10 weeks, were included in the study. The rats were housed in individual cages at 22° C. with 12-h light cycles and had ad libitum access to food and water. Rats were fed a high-fat high-cholesterol diet (44% Carbohydrate, 14% Protein, 42% fat+0.2% Cholesterol) (Mucedola, Milan, IT) for four weeks in the presence or absence of 1% Dodecanedioic acid, sodium salt (w/vol) dissolved in the water (FIG. 18, Panel A). Body weight and food/water intake were monitored weekly. • Study 2: Twenty adult Wistar rats, aged 8-10 weeks, were included in the study. The rats were housed in individual cages at 22° C. with 12-h light cycles and had ad libitum access to food and water. Rats were fed a high-fat high-cholesterol diet (44% Carbohydrate, 14% Protein, 42% fat+0.2% Cholesterol) (Mucedola, Milan, IT). After nine weeks of diet, rats were randomly assigned to one of the following groups: Four weeks of high-fat high-cholesterol diet or four weeks of high-fat high-cholesterol diet and 1% Dodecanedioic acid, sodium salt (w/v) dissolved in the water FIG. 18, Panel B). Body weight and food/water intake were monitored weekly.
Oral Glucose Test Tolerance (OGTT): All animals underwent an OGTT at the end of the study. After an overnight fasting, the rats received a 50% D-glucose solution (1 g/kg body weight) by oral gavage. Blood samples were taken by tail bleeding and collected in EDTA tubes. All blood samples were immediately centrifuged, and plasma divided into appropriate subsamples and stored at −20° C. for further analysis. Blood glucose and was measured at 0, 20, 40, 60, 80, 100 and 120 minutes, while plasma insulin at 0, 60 and 120 minutes. Blood glucose levels were measured by glucometer (Accu-Chek, Roche Diagnostics Division, Grenzacherstrasse, CH). Plasma insulin was measured by ELISA (EMD Millipore Corporation, Billerica, MA), with a sensitivity of 0.1 ng/ml and an intra-and inter-assay precision of 1.9% and 7.6%, respectively.
DODA administration prevents the onset of insulin resistance and NASH: To test the hypothesis that DODA could prevent the development of diet-induced insulin resistance and NASH, the inventors administered 1% (w/vol) of DODA in the drinking water together with a high fat-high cholesterol diet for 4 weeks. Rats fed high fat-high cholesterol diet without the administration of DODA were included as controls.
Panels A and B. • Study 1: Twenty adult Wistar rats, aged 8-10 weeks, were included in the study. The rats were housed in individual cages at 22° C. with 12-h light cycles and had ad libitum access to food and water. Rats were fed a high fat high cholesterol diet (44% Carbohydrate, 14% Protein, 42% fat+0.2% Cholesterol) for 4 weeks in the presence or absence of 1% Dodecanedioic acid, sodium salt dissolved in the water (FIG. 25, Panel A). Body weight and food/water intake were monitored weekly. • Study 2: Twenty adult Wistar rats, aged 8-10 weeks, were included in the study. The rats were housed in individual cages at 22° C. with 12-h light cycles and had ad libitum access to food and water. Rats were fed a high fat-high cholesterol diet (44% Carbohydrate, 14% Protein, 42% fat+0.2% Cholesterol). […] Body weight and food/water intake were monitored weekly. […]

Wistar rats [2] = assay: Study 1 (prevention): liver histology (H&E, Oil Red O, Sirius Red); format: in vivo; conditions: Study 1, 4 weeks, 1% (w/vol) in drinking water
Method: as §1
Histology: The day of the sacrifice fresh portions of liver were cut, embedded in cryo-embedding media (OCT) and snap frozen in liquid nitrogen. Biopsies were cut using a cryostat (5 μm) and slides stored a −20° C. until analyses.
Hematoxylin and Eosin staining was performed to assess hepatic steatosis. Slides were fixed 10 minutes with 95% ethanol, stained with hematoxylin for 1 minute, washed with distilled water, stained with eosin for 30 seconds and cleared in two changes of pure ethanol and two changes of xylene.
Oil Red O was performed to assess intracellular lipid accumulation. Slides were fixed overnight with 4% formalin, stained with Oil Red O solution for 1 hour. Counterstain was performed with Hematoxylin solution.
Sirius Red was used to identify hepatic fibrosis. Slides were fixed 10 minutes with 4% formalin, stained in Direct red 80 for 1 hour, washed in acidified water and dehydrate in 3 changes of absolute ethanol. After brief clearing in xylene, the slides were mounted in a resinous medium. Images were taken with an optical microscope (Leica DM2000, Wetzlar, DE). […]
Panels A and B. • Study 1: Twenty adult Wistar rats, aged 8-10 weeks, were included in the study. […] Body weight and food/water intake were monitored weekly. • Study 2: Twenty adult Wistar rats, aged 8-10 weeks, were included in the study. […] Body weight and food/water intake were monitored weekly. […]

[3] = system: primary human hepatocytes; assay: In vitro citrate uptake; format: cell-based; conditions: citrate 150 μM; for citrate uptake: vs untreated cells
Method: Isolation of human primary hepatocytes: Tissue obtained during percutaneous liver biopsy, was diced (<3 mm) and washed in HBSS to remove excess blood. Tissue was then transferred to a tube containing pre-warmed EGTA buffer (HBSS, 0.5 mM EGTA, 0.5% fatty acid free bovine serum albumin (BSA)) and agitated (100 rpm) in a water bath with shaking bed for 10 min, 37° C. After three washes, to remove the remaining blood and EGTA, the tissue was placed in pre-warmed digestion buffer (HBSS, 0.05% collagenase IV, 0.5% fatty acid free BSA, 10 mM CaC12) and agitated (100 rpm) in a water bath with shaking bed for 30 min, 37° C. The digested tissue was filtered through 100 μm cell strainer while the remaining tissue was again digested in fresh digestion buffer (20). Cell suspensions were pooled and centrifuged at 80 g for 5 min, 4° C. and the supernatant discarded. Cells were grown until confluent and used for citrate uptake analysis.
In vitro Citrate Uptake: Primary human hepatocytes were incubated with or without Dodecanedioic acid, sodium salt (0.1-0.25-0.5-1-1.5% w/vol) for 30 minutes. Following the incubation step, citrate was added at a final concentration of 150 μM for 40 minutes. At the end of the stimulation citrate uptake was assessed by a commercial Citrate Assay Kit and data analyzed with Varioskan LUX multimode microplate reader.

O=C(O)CCCCCCCCCCC(=O)O [DDDA, dodecanedioic acid]
blood glucose concentrations during an oral glucose tolerance test (Wistar rats [1]; vs controls): decrease | hepatic insulin resistance assessed by HOMA-IR (Wistar rats [1]; vs controls): decreased | plasma insulin concentrations during an oral glucose tolerance test (Wistar rats [1]; vs controls): decrease | diet-induced insulin resistance and NASH (overall, prevention) (Wistar rats [1]; listed as C12): able to prevent diet-induced insulin resistance and NASH; also recorded: prevents diet-induced insulin resistance and NASH | diet-induced insulin resistance and NASH (overall, prevention) (Wistar rats [1]; listed as DODA): able to prevent diet-induced insulin resistance and NASH; also recorded: prevents diet-induced insulin resistance and NASH | diet-induced NASH (histology, prevention) (Wistar rats [2]): prevents diet-induced NASH | fibrosis (Picro Sirius Red) (Wistar rats [2]): reduced | hepatic steatosis (Hematoxylin and Eosin) (Wistar rats [2]): reduced | neutral lipids deposition (Oil Red O) (Wistar rats [2]): reduced | citrate uptake ([3]; C12 1% (v/w)): significant decrease | citrate uptake ([3]; C12 1.5% (v/w)): significant decrease | citrate uptake (figure legend) ([3]; C12 0.1-1.5% v/w): inhibits citrate uptake
